Data on 16 compounds can be found in US8217066B2, “Compounds as lysophosphatidic acid receptor antagonists” (Amira Pharmaceuticals, Inc., priority 2009, dated 2012).

One assay concerns the target T1, human LPA1 (Homo sapiens, UniProt Q92633).
T1 construct: the full-length cDNA for human LPA1 was obtained by PCR of the reverse transcription reaction; expressed in transfected cells
The assay can be described thus: LPA1 calcium flux assay (HLPA1 Ca Flux). The class given is cell-based. The following applies: CHO cells stably expressing human LPA1, stimulated with 10 nM LPA. As for the experimental part:
A 1.1 kb cDNA encoding the human LPA1 receptor was cloned from human lung. Human lung RNA (Clontech Laboratories, Inc. USA) was reverse transcribed using the RETROscript kit (Ambion, Inc.) and the full-length cDNA for human LPA1 was obtained by PCR of the reverse transcription reaction. The nucleotide sequence of the cloned human LPA1 was determined by sequencing and confirmed to be identical to the published human LPA1 sequence (An et al. Biochem. Biophys. Res. Commun. 231:619 (1997). The cDNA was cloned into the pcDNA5/FRT expression plasmid and transfected in CHO cells using lipofectamine 2000 (Invitrogen Corp., USA). Clones stably expressing human LPA1 were selected using hygromycin and identified as cells that show Ca-influx in response to LPA.
Human LPA1 or LPA3 expressing CHO cells are seeded at 20,000-45,000 cells per well in a 96-well poly-D-lysine coated plate one or two days before the assay. Prior to the assay, the cells are washed once with PBS and then cultured in serum-free media overnight. On the day of the assay, a calcium indicator dye (Calcium 4, Molecular Devices) in assay buffer (HBSS with Ca^2+ and Mg^2+ and containing 20 mM Hepes and 0.3% fatty-acid free human serum albumin) is added to each well and incubation continued for 1 hour at 37° C. […] of test compounds in 2.5% DMSO are added to the cells and incubation continued at room temperature for 30 minutes. Cells are the stimulated by the addition of 10 nM LPA and intracellular Ca^2+ measured using the Flexstation 3 (Molecular Devices). IC50s are determined using Graphpad prism analysis of drug titration curves.

For assay [1], the system named is A2058 human melanoma cells. The experiment in a line: LPA1 chemotaxis assay. The class given is cell-based. The note with it: 100 nM LPA, read-out: inhibition of LPA-driven chemotaxis, IC50. As to the method:
Chemotaxis of the A2058 human melanoma cells was measured using the Neuroprobe ChemoTx® System plates (8 μm pore size, 5.7 mm diameter sites). The filter sites were coated with 0.001% fibronectin (Sigma) in 20 mM Hepes, pH 7.4 and allowed to dry. A2058 cells were serum-starved for 24 hours, then harvested with Cell Stripper and resuspended in DMEM containing 0.1% fatty-acid-free bovine serum albumin (BSA) to a concentration of 1×10^6/ml. Cells were mixed with an equal volume of test compound (2×) in DMEM containing 0.1% fatty-acid-free BSA and incubated at 37° C. for 15 minutes. LPA (100 nM in DMEM containing 0.1% fatty-acid-free BSA) or vehicle was added to each well of the lower chamber and 50 μl of the cell suspension/test compound mix was applied to the upper portion of the ChemoTx plate. Plates were incubated at 37° C. for three hours and then the cells removed from the upper portion by rinsing with PBS and scraping. The filter was dried then stained with HEMA 3 Staining System (Fisher Scientific). The absorbance of the filter was read at 590 nm and IC50s were determined using Symyx Assay Explorer.

The test system of assay [2] is pancreatic cancer cell lines. The following applies: cited from earlier work.
For assay [3], the system named is highly peritoneal metastatic pancreatic cancer cell line. The following applies: cited from earlier work.
The subject of the next assay is LPA receptor. The note with it: compared with LPA1 (−/−) mice, in which renal fibrosis was significantly attenuated; cited from earlier work.

T1 sequence (Q92633 whole entry): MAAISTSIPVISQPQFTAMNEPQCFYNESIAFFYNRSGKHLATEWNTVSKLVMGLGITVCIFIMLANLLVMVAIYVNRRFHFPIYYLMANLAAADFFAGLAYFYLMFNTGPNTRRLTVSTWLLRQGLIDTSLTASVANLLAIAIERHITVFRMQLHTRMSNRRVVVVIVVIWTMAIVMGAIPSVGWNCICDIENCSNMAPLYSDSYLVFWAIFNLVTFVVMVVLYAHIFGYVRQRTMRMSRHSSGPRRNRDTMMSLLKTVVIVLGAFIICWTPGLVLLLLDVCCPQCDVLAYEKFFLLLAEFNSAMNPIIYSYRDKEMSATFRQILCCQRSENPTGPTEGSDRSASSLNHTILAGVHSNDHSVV

Take `Cc1noc(-c2ccc(-c3ccc(C4(C(=O)O)CC4)cc3)cc2)c1CC(F)(F)CCc1ccccc1` [Compound 21, 1-{4′-[4-(2,2-Difluoro-4-phenyl-butyl)-3-methyl-isoxazol-5-yl]-biphenyl-4-yl}-cyclopropanecarboxylic acid]: the IC50 is under 300 nM on human LPA1 and under 100 nM in assay [1].
On to `Cc1noc(-c2ccc(-c3ccc(C4(C(=O)O)CC4)cc3)cc2)c1C(O)COCc1ccccc1` (stereo not shown) [Compound 42, 1-{4′-[4-(2-Benzyloxy-1-hydroxy-ethyl)-3-methyl-isoxazol-5-yl]-biphenyl-4-yl}-cyclopropanecarboxylic acid], for which the IC50 in assay [1] was under 100 nM.
Regarding `Cc1noc(-c2ccc(CSCCC(=O)O)cc2)c1NC(=O)OC(C)c1ccccc1Cl` (stereo not shown) [Ki16425], in assay [2], the “in vitro migration in response to LPA and peritoneal fluid (ascites) from pancreatic cancer patients” value is recorded as “effectively blocked”. In addition, the “LPA-induced and ascites-induced invasion activity” value in assay [3] is “blocked”. Besides, the “development of renal fibrosis in UUO mice” value with LPA receptor was “closely resembled the LPA1 (−/−) mice”.
In the case of `Cc1noc(-c2ccc(-c3ccc(C4(C(=O)O)CC4)cc3)cc2)c1[C@H](O)CSCc1ccccc1` [Compound 65, 1-{4′-[4-((S)-2-Benzylsulfanyl-1-hydroxy-ethyl)-3-methyl-isoxazol-5-yl]-biphenyl-4-yl}-cyclopropanecarboxylic acid], the IC50 on human LPA1 is under 300 nM; in assay [1], under 100 nM.
For `Cc1noc(-c2ccc(-c3ccc(C4(C(=O)NS(C)(=O)=O)CC4)cc3)cc2)c1[C@H](O)CSCc1ccccc1` [Compound 77, N-(1-{4′-[4-((S)-2-Benzylsulfanyl-1-hydroxy-ethyl)-3-methyl-isoxazol-5-yl]-biphenyl-4-yl}-cyclopropanecarbonyl)-methanesulfonamide], in that order: under 300 nM and under 100 nM.
For the compound `Cc1noc(-c2ccc(-c3ccc(C4(C(=O)O)CC4)cc3)cc2)c1NC(C)CCc1ccccc1` (stereo not shown) [Compound 4, 1-{4′-[3-Methyl-4-(1-methyl-3-phenyl-propylamino)-isoxazol-5-yl]-biphenyl-4-yl}-cyclopropanecarboxylic acid], in assay [1], the IC50 is under 100 nM.
On to `Cc1noc(-c2ccc(-c3ccc(C4(C(=O)O)CC4)cc3)cc2)c1NC(C)CCc1ccc(Cl)cc1` (stereo not shown) [Compound 54, 1-(4′-{4-[3-(4-Chloro-phenyl)-1-methyl-propylamino]-3-methyl-isoxazol-5-yl}-biphenyl-4-yl)-cyclopropanecarboxylic acid], for which the results for the IC50 (at human LPA1; in assay [1]) were under 300 nM and under 100 nM, respectively.
For `Cc1noc(-c2ccc(-c3ccc(C4(C(=O)O)CC4)cc3)cc2)c1[C@H](O)CO[C@H](C)c1ccccc1` [Compound 49, 1-(4′-{4-[(5)-1-Hydroxy-2-((R)-1-phenyl-ethoxy)-ethyl]-3-methyl-isoxazol-5-yl}-biphenyl-4-yl)-cyclopropanecarboxylic acid], in that order: under 300 nM and under 100 nM.
For `Cc1noc(-c2ccc(-c3ccc(C4(C(=O)NS(C)(=O)=O)CC4)cc3)cc2)c1[C@H](O)CO[C@H](C)c1ccccc1` [Compound 72, N-[1-(4′-{4-[(S)-1-Hydroxy-2-((R)-1-phenyl-ethoxy)-ethyl]-3-methyl-isoxazol-5-yl]-biphenyl-4-yl)-cyclopropanecarbonyl}-methanesulfonamide] the same measures were under 300 nM and under 100 nM.
For `Cc1noc(-c2ccc(-c3ccc(C4(C(=O)O)CC4)cc3)cc2)c1C(O)CSCc1ccccc1` (stereo not shown) [Compound 38, 1-{4′-[4-(2-Benzylsulfanyl-1-hydroxy-ethyl)-3-methyl-isoxazol-5-yl]-biphenyl-4-yl}-cyclopropanecarboxylic acid] the same measures were under 300 nM and under 100 nM.
Take `Cc1noc(-c2ccc(-c3ccc(C4(C(=O)O)CC4)cc3)cc2)c1NC(C)CCc1ccccc1` (single isomer, unassigned) [Compound 51, 1-{4′-[3-Methyl-4-(1-methyl-3-phenyl-propylamino)-isoxazol-5-yl]-biphenyl-4-yl}-cyclopropanecarboxylic acid]: in assay [1], the IC50 is under 100 nM.
For the compound `Cc1noc(-c2ccc(-c3ccc(C4(C(=O)NS(C)(=O)=O)CC4)cc3)cc2)c1C(O)C(F)(F)CCc1ccccc1` (stereo not shown) [Compound 76, N-(1-{4′-[4-(2,2-Difluoro-1-hydroxy-4-phenyl-butyl)-3-methyl-isoxazol-5-yl]-biphenyl-4-yl}-cyclopropanecarbonyl)-methanesulfonamide], the results for the IC50 (at human LPA1; in assay [1]) were under 300 nM and under 100 nM, respectively.
For `Cc1noc(-c2ccc(-c3ccc(C4(C(=O)O)CC4)cc3)cc2)c1NC(C)CCc1cccc(F)c1` (stereo not shown) [Compound 30, 1-(4′-{4-[3-(3-Fluoro-phenyl)-1-methyl-propylamino]-3-methyl-isoxazol-5-yl}-biphenyl-4-yl)-cyclopropanecarboxylic acid] the same measures were under 300 nM and under 100 nM.
On to `Cc1noc(-c2ccc(-c3ccc(C4(C(=O)O)CC4)cc3)cc2)c1NC(C)CCc1cccc(Cl)c1` (stereo not shown) [Compound 41, 1-(4′-{4-[3-(3-Chloro-phenyl)-1-methyl-propylamino]-3-methyl-isoxazol-5-yl}-biphenyl-4-yl)-cyclopropanecarboxylic acid], for which the IC50 in assay [1] was under 100 nM.
For the compound `Cc1noc(-c2ccc(-c3ccc(C4(C(=O)NS(C)(=O)=O)CC4)cc3)cc2)c1[C@H](O)COCc1ccccc1` [Compound 73, N-(1-{4′-[4-((S)-2-Benzyloxy-1-hydroxy-ethyl)-3-methyl-isoxazol-5-yl]-biphenyl-4-yl}-cyclopropanecarbonyl)-methanesulfonamide], the IC50 at human LPA1 was under 300 nM; in assay [1], under 100 nM.
On to `Cc1noc(-c2ccc(-c3ccc(C4(C(=O)O)CC4)cc3)cc2)c1NC(C)CCc1cccc(Cl)c1` (single isomer, unassigned) [Compound 57, 1-(4′-{4-[3-(3-Chloro-phenyl)-1-methyl-propylamino]-3-methyl-isoxazol-5-yl}-biphenyl-4-yl)-cyclopropanecarboxylic acid], for which, in assay [1], the IC50 was under 100 nM.

For orientation: IC50 means the concentration needed to halve the response being measured.
